Columns and labels:
Test in all cases: concentration in plasma after dosing
Rat [1] = settings: 40 min; dosed: Dibromoacetic acid; 10 mg/kg; iv; Male; F344
Rat [2] = settings: 5 min; dosed: Dibromoacetic acid; 50 mg/kg; oral; Female; Harlan Sprague Dawley
Rat [3] = settings: dosed: Dibromoacetic acid, 25 mg/kg, oral, Male, Harlan Sprague Dawley
Rat [4] = settings: dosed: Dibromoacetic acid, 25 mg/kg, oral, Male, Harlan Sprague Dawley; remark: listed apart in the source
Rat [5] = settings: dosed: Dibromoacetic acid, 10 mg/kg, iv, Male, F344
Rat [6] = settings: dosed: Dibromoacetic acid, 50 mg/kg, oral, Female, Harlan Sprague Dawley
Rat [7] = settings: dosed: Dibromoacetic acid, 25 mg/kg, oral, Male, Harlan Sprague Dawley; remark: listed apart in the source
Rat [8] = settings: dosed: Dibromoacetic acid, 25 mg/kg, oral, Male, Harlan Sprague Dawley; remark: listed apart in the source
Rat [9] = settings: dosed: Dibromoacetic acid, 25 mg/kg, oral, Male, Harlan Sprague Dawley; remark: listed apart in the source
Rat [10] = settings: 20 min; dosed: Dibromoacetic acid; 10 mg/kg; iv; Male; F344
Rat [11] = settings: 5 min; dosed: Dibromoacetic acid; 25 mg/kg; oral; Male; Harlan Sprague Dawley
Rat [12] = settings: 10 min; dosed: Dibromoacetic acid; 10 mg/kg; iv; Male; F344
Rat [13] = settings: dosed: Dibromoacetic acid, 25 mg/kg, oral, Male, Harlan Sprague Dawley; remark: listed apart in the source
Rat [14] = settings: 0.5 h; dosed: Dibromoacetic acid; 25 mg/kg; oral; Male; Harlan Sprague Dawley
Rat [15] = settings: dosed: Dibromoacetic acid, 25 mg/kg, oral, Female, Harlan Sprague Dawley
Rat [16] = settings: 5 min; dosed: Dibromoacetic acid; 25 mg/kg; oral; Male; Harlan Sprague Dawley; remark: listed apart in the source
Rat [17] = settings: 10 min; dosed: Dibromoacetic acid; 10 mg/kg; iv; Male; F344; remark: listed apart in the source
Rat [18] = settings: 0.5 h; dosed: Dibromoacetic acid; 25 mg/kg; oral; Male; Harlan Sprague Dawley; remark: listed apart in the source
Rat [19] = settings: dosed: Dibromoacetic acid, 110 mg/kg, iv, Female, Harlan Sprague-Dawley
Rat [20] = settings: dosed: Dibromoacetic acid
Rat [21] = settings: dosed: Dibromoacetic acid, 25 mg/kg, oral, Male, Harlan Sprague Dawley; remark: listed apart in the source
Rat [22] = settings: dosed: Dibromoacetic acid, 25 mg/kg, oral, Male, Harlan Sprague Dawley; remark: listed apart in the source
Rat [23] = settings: 5 min; dosed: Dibromoacetic acid; 25 mg/kg; oral; Male; Harlan Sprague Dawley; remark: listed apart in the source
Rat [24] = settings: 0.5 h; dosed: Dibromoacetic acid; 25 mg/kg; oral; Male; Harlan Sprague Dawley; remark: listed apart in the source
Rat [25] = settings: dosed: Dibromoacetic acid, 110 mg/kg, iv, Female, Harlan Sprague-Dawley; remark: listed apart in the source
Rat [26] = settings: 20 min; dosed: Dibromoacetic acid; 10 mg/kg; iv; Male; F344; remark: listed apart in the source
Rat [27] = settings: dosed: Dibromoacetic acid, 25 mg/kg, oral, Male, Harlan Sprague Dawley; remark: listed apart in the source
Rat [28] = settings: dosed: Dibromoacetic acid, 10 mg/kg, iv, Male, F344; remark: listed apart in the source
Rat [29] = settings: dosed: Dibromoacetic acid, 25 mg/kg, oral, Male, Harlan Sprague Dawley; remark: listed apart in the source
Rat [30] = settings: dosed: Dibromoacetic acid, 25 mg/kg, oral, Male, Harlan Sprague Dawley; remark: listed apart in the source
Rat [31] = settings: 5 min; dosed: Dibromoacetic acid; 25 mg/kg; oral; Male; Harlan Sprague Dawley; remark: listed apart in the source
Rat [32] = settings: dosed: Dibromoacetic acid, 25 mg/kg, oral, Male, Harlan Sprague Dawley; remark: listed apart in the source
Rat [33] = settings: dosed: Dibromoacetic acid, 25 mg/kg, oral, Male, Harlan Sprague Dawley; remark: listed apart in the source
Rat [34] = settings: 5 min; dosed: Dibromoacetic acid; 50 mg/kg; oral; Female; Harlan Sprague Dawley; remark: listed apart in the source
Rat [35] = settings: dosed: Dibromoacetic acid, 25 mg/kg, oral, Male, Harlan Sprague Dawley; remark: listed apart in the source
Rat [36] = settings: dosed: Dibromoacetic acid, 10 mg/kg, iv, Male, F344; remark: listed apart in the source
Rat [37] = settings: dosed: Dibromoacetic acid, 25 mg/kg, oral, Female, Harlan Sprague Dawley; remark: listed apart in the source
Rat [38] = settings: dosed: Dibromoacetic acid, 10 mg/kg, iv, Male, F344; remark: listed apart in the source
Rat [39] = settings: dosed: Dibromoacetic acid, 25 mg/kg, oral, Male, Harlan Sprague Dawley; remark: listed apart in the source
Rat [40] = settings: 40 min; dosed: Dibromoacetic acid; 10 mg/kg; iv; Male; F344; remark: listed apart in the source
Rat [41] = settings: dosed: Dibromoacetic acid, 25 mg/kg, oral, Male, Harlan Sprague Dawley; remark: listed apart in the source
Rat [42] = settings: 0.5 h; dosed: Dibromoacetic acid; 25 mg/kg; oral; Male; Harlan Sprague Dawley; remark: listed apart in the source
Rat [43] = settings: dosed: Dibromoacetic acid, 25 mg/kg, oral, Male, Harlan Sprague Dawley; remark: listed apart in the source
Rat [44] = settings: 5 min; dosed: Dibromoacetic acid; 25 mg/kg; oral; Male; Harlan Sprague Dawley; remark: listed apart in the source
Rat [45] = settings: dosed: Dibromoacetic acid, 110 mg/kg, iv, Female, Harlan Sprague-Dawley; remark: listed apart in the source

O=C(O)C(Br)Br [Dibromoacetic acid]
Settings | concentration in plasma [ng/mL]
Rat [1] | 498
Rat [2] | 2800
Rat [10] | 2540
Rat [11] | 1630
Rat [12] | 7190
Rat [14] | 8900
Rat [16] | 3390
Rat [17] | 6230
Rat [18] | 13500
Rat [23] | 294
Rat [24] | 12600
Rat [26] | 1890
Rat [31] | 2210
Rat [34] | 4030
Rat [40] | 607
Rat [42] | 7630
Rat [44] | 238

Settings | concentration in plasma [ng/mL]
Rat [3], 3 h | 646
Rat [3], 10 min | 5770
Rat [4], 0.75 h | 10300
Rat [4], 4 h | 772
Rat [5], 1.25 h | 301
Rat [5], 5 min | 12000
Rat [6], 3 h | 2050
Rat [6], 10 min | 9980
Rat [7], 3 h | 1720
Rat [7], 10 min | 853
Rat [8], 1 h | 8050
Rat [8], 2 h | 1280
Rat [9], 0.75 h | 10200
Rat [9], 4 h | 1540
Rat [13], 1.5 h | 1460
Rat [13], 20 min | 13200
Rat [15], 1 h | 8860
Rat [15], 2 h | 1240
Rat [19], 1.5 h | 17600
Rat [19], 2 h | 5370
Rat [21], 3 h | 129
Rat [21], 10 min | 12100
Rat [22], 1.5 h | 2030
Rat [22], 20 min | 20900
Rat [25], 1.5 h | 20900
Rat [25], 3 h | 472
Rat [27], 1.5 h | 1560
Rat [27], 20 min | 24200
Rat [28], 1 h | 208
Rat [28], 2 min | 28100
Rat [29], 0.75 h | 6410
Rat [29], 4 h | 772
Rat [30], 1 h | 8770
Rat [30], 2 h | 1770
Rat [32], 0.5 h | 15000
Rat [32], 6 h | 466
Rat [33], 3 h | 1620
Rat [33], 10 min | 1880
Rat [35], 0.75 h | 8790
Rat [35], 4 h | 592
Rat [36], 1.25 h | 101
Rat [36], 5 min | 14500
Rat [37], 1 h | 8120
Rat [37], 2 h | 887
Rat [38], 1 h | 186
Rat [38], 2 min | 28800
Rat [39], 1.5 h | 3340
Rat [39], 20 min | 10700
Rat [41], 1.5 h | 1550
Rat [41], 20 min | 13500
Rat [43], 3 h | 476
Rat [43], 10 min | 6890
Rat [45], 2 h | 4660
Rat [45], 3 h | 459

concentration in plasma [ng/mL], Rat [20]
Settings | Female | Male
0.5 h, 25 mg/kg, oral, Harlan Sprague Dawley | – | 10800
0.75 h, 25 mg/kg, oral, Harlan Sprague Dawley | 8910 | 11500
1 h, 10 mg/kg, iv, F344 | – | 262
1 h, 25 mg/kg, oral, Harlan Sprague Dawley | 6860 | 8310
1.25 h, 10 mg/kg, iv, F344 | – | 97.1
1.5 h, 10 mg/kg, iv, F344 | – | 175
1.5 h, 25 mg/kg, oral, Harlan Sprague Dawley | – | 2000
1.5 h, 110 mg/kg, iv, Harlan Sprague-Dawley | 21600 | –
2 h, 25 mg/kg, oral, Harlan Sprague Dawley | 1460 | 1850
2 h, 110 mg/kg, iv, Harlan Sprague-Dawley | 4710 | –
2 min, 10 mg/kg, iv, F344 | – | 31000
3 h, 25 mg/kg, oral, Harlan Sprague Dawley | – | 751
3 h, 50 mg/kg, oral, Harlan Sprague Dawley | 1930 | –
3 h, 110 mg/kg, iv, Harlan Sprague-Dawley | 405 | –
4 h, 25 mg/kg, oral, Harlan Sprague Dawley | 966 | 106
5 min, 10 mg/kg, iv, F344 | – | 11500
5 min, 25 mg/kg, oral, Harlan Sprague Dawley | – | 411
5 min, 50 mg/kg, oral, Harlan Sprague Dawley | 8050 | –
6 h, 25 mg/kg, oral, Harlan Sprague Dawley | – | 109
10 min, 10 mg/kg, iv, F344 | – | 5230
10 min, 25 mg/kg, oral, Harlan Sprague Dawley | – | 4010
10 min, 50 mg/kg, oral, Harlan Sprague Dawley | 13500 | –
20 min, 10 mg/kg, iv, F344 | – | 2810
20 min, 25 mg/kg, oral, Harlan Sprague Dawley | – | 17200
40 min, 10 mg/kg, iv, F344 | – | 544

— EPA's CvTdb concentration-time database
